# Where two headings read alike, the source gives them in different places.
# What was measured:
# Assay type in all cases: biochemical
# PKC delta kinase = PKC delta kinase (Homo sapiens, UniProt Q05655); assay: PKC delta kinase inhibition, coupled-enzyme (NADH absorbance) assay, Ki; settings: 150 μM ATP, 46 nM PKC delta kinase, 30° C.
# Procedure, shortened: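 Enzyme and compound pre-equilibrated 10 min at 30° C before adding ATP to 150 μM final. Buffer: HEPES pH 7.5 (100 mM), 10 mM MgCl2, 25 mM NaCl, 0.1 mM EDTA, 0.01% Brij.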
# PKC alpha kinase = PKC alpha kinase (Homo sapiens, UniProt P17252); assay: PKC alpha kinase inhibition, coupled-enzyme (NADH absorbance) assay, Ki; settings: 130 μM ATP, 4.5 nM PKC alpha kinase, 30° C.
# Procedure, shortened: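 Ki derived by non-linear regression of initial rates from a coupled assay tracking NADH absorbance at 340 nm over 15 min at 30 °C. ATP was 130 μM final after a 10 min compound–enzyme preincubation in HEPES pH 7.5 buffer with MgCl2, CaCl2, NaCl, EDTA and Brij.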
# PKC theta kinase = PKC theta kinase (Homo sapiens, UniProt Q04759); assay: PKC theta kinase inhibition, coupled-enzyme (NADH absorbance) assay, Ki; settings: 240 μM ATP, 18 nM PKC theta kinase, 30° C.
# Chain of PKC theta kinase (Q04759 whole entry): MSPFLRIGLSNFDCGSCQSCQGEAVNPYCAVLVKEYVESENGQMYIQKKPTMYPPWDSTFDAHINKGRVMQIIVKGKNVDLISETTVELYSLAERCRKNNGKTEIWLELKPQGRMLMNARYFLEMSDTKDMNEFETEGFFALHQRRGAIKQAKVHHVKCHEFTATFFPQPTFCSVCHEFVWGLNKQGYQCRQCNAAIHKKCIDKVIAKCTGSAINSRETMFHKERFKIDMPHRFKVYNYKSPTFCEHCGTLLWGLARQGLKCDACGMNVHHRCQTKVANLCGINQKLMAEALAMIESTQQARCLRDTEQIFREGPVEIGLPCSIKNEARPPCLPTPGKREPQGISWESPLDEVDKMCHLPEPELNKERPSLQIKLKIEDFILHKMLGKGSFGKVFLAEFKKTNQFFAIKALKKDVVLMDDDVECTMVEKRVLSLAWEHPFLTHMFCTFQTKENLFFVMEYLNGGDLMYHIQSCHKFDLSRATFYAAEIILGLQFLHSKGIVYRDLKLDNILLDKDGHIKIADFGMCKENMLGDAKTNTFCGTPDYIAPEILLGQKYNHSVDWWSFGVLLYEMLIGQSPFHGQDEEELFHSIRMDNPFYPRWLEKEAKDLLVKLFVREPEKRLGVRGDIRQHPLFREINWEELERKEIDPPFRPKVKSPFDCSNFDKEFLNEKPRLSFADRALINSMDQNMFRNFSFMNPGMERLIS
# Procedure, shortened: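 Enzyme and compound equilibrated 10 min at 30 °C before reaction in HEPES pH 7.5 buffer with MgCl2, NaCl, EDTA and Brij. Activity tracked as NADH loss at 340 nm through a coupled system. Initial-rate data fitted by non-linear regression to give Ki.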
# Chain of PKC delta kinase (Q05655 whole entry): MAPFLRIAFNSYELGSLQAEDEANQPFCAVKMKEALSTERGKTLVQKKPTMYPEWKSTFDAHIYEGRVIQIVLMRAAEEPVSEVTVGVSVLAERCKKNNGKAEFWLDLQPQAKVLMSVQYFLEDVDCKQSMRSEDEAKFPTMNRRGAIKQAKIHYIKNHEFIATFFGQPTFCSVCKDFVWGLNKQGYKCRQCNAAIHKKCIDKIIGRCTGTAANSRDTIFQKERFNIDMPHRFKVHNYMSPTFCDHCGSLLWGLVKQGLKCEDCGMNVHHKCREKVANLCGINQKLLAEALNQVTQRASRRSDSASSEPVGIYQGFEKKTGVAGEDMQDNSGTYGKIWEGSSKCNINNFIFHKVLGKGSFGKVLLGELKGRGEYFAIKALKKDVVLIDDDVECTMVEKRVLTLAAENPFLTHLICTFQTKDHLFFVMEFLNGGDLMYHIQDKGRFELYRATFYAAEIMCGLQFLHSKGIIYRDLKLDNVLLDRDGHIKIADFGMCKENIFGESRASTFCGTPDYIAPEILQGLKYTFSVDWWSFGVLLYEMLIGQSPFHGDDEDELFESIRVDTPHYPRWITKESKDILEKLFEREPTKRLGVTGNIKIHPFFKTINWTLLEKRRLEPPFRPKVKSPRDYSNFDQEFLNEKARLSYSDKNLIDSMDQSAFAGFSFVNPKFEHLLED
Compound,Ki (PKC delta kinase; read-out: Ki PKC delta) [nM],Ki (PKC alpha kinase) [nM],Ki (PKC theta kinase) [nM],Ki (PKC delta kinase; Ki PKC delta) [nM]
CC(C)CC1(C)CN(c2ccc(Cl)c(-c3n[nH]c4ncccc34)n2)CCN1 (stereo not drawn) [Compound 86],< 50,< 50,< 50,
CC(C)(O)C1CN(c2ccc(C(F)(F)F)c(-c3n[nH]c4ncccc34)n2)CCN1 (stereo not drawn) [Compound 87],> 2000,> 1250,< 500,
Fc1ccc(N2CCNCC2)nc1-c1n[nH]c2ncccc12 [Compound 88],,> 1250,< 500,< 2800
CC(C)CC1(C)CN(c2cccc(-c3n[nH]c4ncccc34)n2)CCN1 (stereo not drawn) [Compound 89],< 50,< 500,< 50,
CC(C)C[C@H]1CN(c2ccc(C(F)(F)F)c(-c3n[nH]c4ncccc34)n2)CC[C@@H]1O [Compound 90],> 2000,> 1250,> 700,
CC(C)C[C@H]1CN(c2ccc(C(F)(F)F)c(-c3n[nH]c4ncccc34)n2)CC[C@H]1O [Compound 91],> 2000,> 1250,< 500,
C=C(F)c1cc(-c2n[nH]c3ncccc23)nc(N2CCNCC2)c1 [Compound 92],< 500,> 1250,< 500,
Cc1cc(-c2n[nH]c3ncccc23)nc(N2CCNCC2)c1 [Compound 93],> 2000,> 1250,> 700,
FC(F)(F)c1cc(-c2n[nH]c3ncccc23)nc(N2CCNCC2)c1 [Compound 94],> 2000,> 1250,> 700,
Cc1cc(N2CCNCC2)nc(-c2n[nH]c3ncccc23)c1Cl [Compound 95],< 2800,> 1250,< 2800,
FC(F)(F)c1ccc(N2CCCNCC2)nc1-c1n[nH]c2ncccc12 [Compound 97],> 2000,> 1250,< 500,
CC(C)[C@H]1CN(c2ccc(C(F)(F)F)c(-c3n[nH]c4ncccc34)n2)CCN1 [Compound 98],> 2000,> 1250,< 500,
CC(C)C[C@@H]1CC(F)(c2cccc(-c3n[nH]c4ncccc34)n2)CCN1 (stereo partly drawn) [Compound 99],> 2000,> 1250,< 500,
COC(C)(C)CC1CN(c2ccc(C(F)(F)F)c(-c3n[nH]c4ncccc34)n2)CCN1 (stereo not drawn) [Compound 100],> 1250,> 1250,< 500,
COC(C)(C)CC1CN(c2cccc(-c3n[nH]c4ncccc34)n2)CCN1 (stereo not drawn) [Compound 101],> 1250,> 1250,< 50,
CC(C)(F)CC1CN(c2ccc(C(F)(F)F)c(-c3n[nH]c4ncccc34)n2)CCN1 (stereo not drawn) [Compound 102],> 1250,> 1250,< 50,
C=C(C)CC1CN(c2ccc(C(F)(F)F)c(-c3n[nH]c4ncccc34)n2)CCN1 (stereo not drawn) [Compound 103],< 500,< 2800,< 50,
CC(C)=CC1CN(c2ccc(C(F)(F)F)c(-c3n[nH]c4ncccc34)n2)CCN1 (stereo not drawn) [Compound 104],< 2800,< 2800,< 50,
CC(C)(O)C1CN(c2cccc(-c3n[nH]c4ncccc34)n2)CCN1 (stereo not drawn) [Compound 105],< 500,> 1250,< 50,
C=C(F)c1cc(-c2n[nH]c3ncccc23)nc(N2CCC(N)CC2)c1 [Compound 106],> 1250,> 1250,< 500,
Cc1cc(-c2n[nH]c3ncccc23)nc(N2CCC(N)CC2)c1 [Compound 107],> 1250,> 1250,< 500,
NC1CCN(c2cc(C(F)(F)F)cc(-c3n[nH]c4ncccc34)n2)CC1 [Compound 108],< 2800,> 1250,< 500,

Compound,Ki (PKC delta kinase; read-out: Ki PKC delta) [nM],Ki (PKC alpha kinase) [nM],Ki (PKC theta kinase) [nM],Ki (PKC delta kinase; Ki PKC delta) [nM]
Cc1cc(N2CCC(N)CC2)nc(-c2n[nH]c3ncccc23)c1Cl [Compound 109],> 1250,> 1250,< 2800,
NC1CCN(c2ccc(Cl)c(-c3n[nH]c4ncccc34)n2)CC1 [Compound 110],< 2800,> 1250,< 500,
CC(C)C[C@H]1CC(O)(c2cccc(-c3n[nH]c4ncccc34)n2)CCN1 (stereo partly drawn) [Compound 111],> 1250,> 1250,> 700,
CCCC1CN(c2ccc(C(F)(F)F)c(-c3n[nH]c4ncccc34)n2)CCN1 (stereo not drawn) [Compound 113],> 1250,> 1250,< 50,
COc1ccccc1C1CN(c2ccc(C(F)(F)F)c(-c3n[nH]c4ncccc34)n2)CCN1 (stereo not drawn) [Compound 114],> 1250,> 1250,< 500,
Fc1cccc(C2CN(c3ccc(C(F)(F)F)c(-c4n[nH]c5ncccc45)n3)CCN2)c1 (stereo not drawn) [Compound 115],< 2800,< 2800,< 50,
C[C@H]1CN(c2ccc(C(F)(F)F)c(-c3n[nH]c4ncccc34)n2)CCN1 [Compound 116],< 2800,> 1250,< 500,
C[C@@H]1CN(c2ccc(C(F)(F)F)c(-c3n[nH]c4ncccc34)n2)CCN1 [Compound 117],> 1250,> 1250,< 500,
CC(C)C[C@H]1CN(c2cccc(-c3n[nH]c4ncccc34)n2)CC[C@H]1N [Compound 118],< 500,< 2800,< 50,
CC(F)(F)CC1CN(c2ccc(C(F)(F)F)c(-c3n[nH]c4ncccc34)n2)CCN1 (stereo not drawn) [Compound 119],> 1250,> 1250,< 500,
FC(F)(F)c1ccc(N2CC3CCC(C2)N3)nc1-c1n[nH]c2ncccc12 [Compound 120],< 2800,> 1250,< 500,
FC(F)(F)c1ccc(N2CCN[C@@H](Cc3ccccc3)C2)nc1-c1n[nH]c2ncccc12 [Compound 121],> 1250,> 1250,< 500,
NC1CCCN(c2ccc(C(F)(F)F)c(-c3n[nH]c4ncccc34)n2)C1 (stereo not drawn) [Compound 122],> 1250,> 1250,> 700,
CCCC1CN(c2ccc(Cl)c(-c3n[nH]c4ncccc34)n2)CCN1 (stereo not drawn) [Compound 123],< 2800,> 1250,< 50,
Cc1ccccc1C1CN(c2ccc(C(F)(F)F)c(-c3n[nH]c4ncccc34)n2)CCN1 (stereo not drawn) [Compound 124],> 1250,> 1250,< 500,
NC1CCN(c2ccc(C(F)(F)F)c(-c3n[nH]c4ncccc34)n2)C1 (stereo not drawn) [Compound 125],> 1250,> 1250,< 2800,
NC1CCN(c2ccc(C(F)(F)F)c(-c3n[nH]c4ncccc34)n2)CC1 [Compound 126],> 1250,> 1250,< 500,
NCC1CCN(c2ccc(C(F)(F)F)c(-c3n[nH]c4ncccc34)n2)CC1 [Compound 127],> 1250,> 1250,> 700,
NCC1CCCN(c2ccc(C(F)(F)F)c(-c3n[nH]c4ncccc34)n2)C1 (stereo not drawn) [Compound 128],> 1250,> 1250,> 700,
FC(F)(F)c1ccc(N2CCN[C@@H](c3ccccc3)C2)nc1-c1n[nH]c2ncccc12 [Compound 129],< 2800,< 2800,< 50,
CC(C)C[C@H]1CN(c2cccc(-c3n[nH]c4ncccc34)n2)CC[C@@H]1N [Compound 130],< 500,< 2800,< 50,
